In patent US20060009478A1, “Methods for the treatment of back pain” (priority 2003, published 2006):

How the values were obtained:
[1] = test system: patients with moderate to severe chronic pain due to osteoarthritis of the hip or knee; assay: Global assessment of study medication, 3-week osteoarthritis study; assay type: in vivo, human
Procedure: Global Assessment of Study Medication was also assessed weekly at clinic visits. The patient was prompted with the question, “How would you rate the study medication you received this past week? (Please consider the quality of your pain relief, your side effects, your activity level, your mood and sense of well-being, etc. in this evaluation.)”. Responses were selected from poor, fair, good, very good, and excellent.
(§1) The global assessment, quality of analgesia, and pain control, recorded at the end of each week, were summarized in terms of category proportions.
For secondary analysis of data, pain intensity changes, SF-12, and WOMAC were analyzed with the ANOVA methods as described above. Within treatment arms, weeks were compared in pairwise fashion using paired-sample methods. The global assessments, quality of analgesia ratings, and pain control was analyzed at each week, globally and in pairwise fashion, using the Cocharan-Mantel-Haenszel row mean scores (CMH-RMS) test, using equally spaced scores. An “observed data” analysis, without any data imputation, was conducted on pain intensity changes, global assessments, quality of analgesia ratings, pain control, SF-12, and WOMAC using the same analysis methods described previously.

[2] = test system: patients with moderate to severe chronic pain due to osteoarthritis of the hip or knee; assay: Pain control, 3-week osteoarthritis study; assay type: in vivo, human; details: ITT (N = 102 per active group), LOCF
Procedure: Pain Control was also assessed weekly at clinic visits. The patient was prompted with the question, “During the past week, how would you describe your pain control during the course of each day?” Responses were selected from: Pain was controlled for (1) a few hours or less each day; (2) several hours each day; (3) most of each day; and (4) throughout each day.
as §1
For secondary analysis of data, pain intensity changes, SF-12, and WOMAC were analyzed with the ANOVA methods as described above. Within treatment arms, weeks were compared in pairwise fashion using paired-sample methods. The global assessments, quality of analgesia ratings, and pain control was analyzed at each week, globally and in pairwise fashion, using the Cocharan-Mantel-Haenszel row mean scores (CMH-RMS) test, using equally spaced scores.

[3] = test system: patients with moderate to severe chronic low back pain; assay: Short Opiate Withdrawal Scale (SOWS), low back pain study; details: for SOWS change from baseline, MAX / SOWS change from baseline, MEAN(SD) / SOWS change from baseline, MEDIAN / SOWS change from baseline, MIN / SOWS score, MAX / SOWS score, MEAN(SD) / SOWS score, MEDIAN / SOWS score, MIN / SOWS change from baseline, MAXIMUM / SOWS change from baseline, MINIMUM / SOWS score, MAXIMUM / SOWS score, MINIMUM: ITT
[4] = ITT (N = 102 per active group), LOCF
[5] = all patients, change from baseline to day 1
[6] = all patients, change from baseline to day 2
[7] = all patients, change from baseline to day 3
[8] = all patients, change from baseline to day 4
[9] = all patients, last dose date (baseline)
[10] = all patients, opioid withdrawal monitoring day 1
[11] = all patients, opioid withdrawal monitoring day 2
[12] = all patients, opioid withdrawal monitoring day 3
[13] = all patients, opioid withdrawal monitoring day 4
[14] = patients with <4 weeks of dosing, change from baseline to day 1
[15] = patients with <4 weeks of dosing, change from baseline to day 2
[16] = patients with <4 weeks of dosing, change from baseline to day 3
[17] = patients with <4 weeks of dosing, change from baseline to day 4
[18] = patients with <4 weeks of dosing, last dose date (baseline)
[19] = patients with <4 weeks of dosing, opioid withdrawal monitoring day 1
[20] = patients with <4 weeks of dosing, opioid withdrawal monitoring day 2
[21] = patients with <4 weeks of dosing, opioid withdrawal monitoring day 3
[22] = patients with <4 weeks of dosing, opioid withdrawal monitoring day 4
[23] = patients with ≧4 weeks of dosing, change from baseline to day 1
[24] = patients with ≧4 weeks of dosing, change from baseline to day 2
[25] = patients with ≧4 weeks of dosing, change from baseline to day 3
[26] = patients with ≧4 weeks of dosing, change from baseline to day 4
[27] = patients with ≧4 weeks of dosing, last dose date (baseline)
[28] = patients with ≧4 weeks of dosing, opioid withdrawal monitoring day 1
[29] = patients with ≧4 weeks of dosing, opioid withdrawal monitoring day 2
[30] = patients with ≧4 weeks of dosing, opioid withdrawal monitoring day 3
[31] = patients with ≧4 weeks of dosing, opioid withdrawal monitoring day 4

## COc1ccc2c3c1O[C@H]1C(=O)CC[C@@]4(O)[C@@H](C2)N(C)CC[C@]314 [OXY QID, oxycodone]
[1]; [4]
  Global assessment Week 1: EXCELLENT (4), number (%) of patients: 3 (2.9%)
  Global assessment Week 1: FAIR (1), number (%) of patients: 37 (36.3%)
  Global assessment Week 1: GOOD (2), number (%) of patients: 30 (29.4%)
  Global assessment Week 1: POOR (0), number (%) of patients: 16 (15.7%)
  Global assessment Week 1: VERY GOOD (3), number (%) of patients: 12 (11.8%)
  Global assessment Week 2: EXCELLENT (4), number (%) of patients: 6 (5.9%)
  Global assessment Week 2: FAIR (1), number (%) of patients: 29 (28.4%)
  Global assessment Week 2: POOR (0), number (%) of patients: 16 (15.7%)
  Global assessment Week 3: EXCELLENT (4), number (%) of patients: 6 (5.9%)
  Global assessment Week 3: FAIR (1), number (%) of patients: 18 (17.6%)
  Global assessment Week 3: GOOD (2), number (%) of patients: 36 (35.3%)
  Global assessment Week 3: POOR (0), number (%) of patients: 24 (23.5%)
  Global assessment Week 3: VERY GOOD (3), number (%) of patients: 14 (13.7%)
[1]; Week 3
  Patients reporting a global assessment of very good or excellent at Week 3: 19.6%
[2]
  Pain control Week 1: PAIN CONTROLLED A FEW HRS/LESS EACH DAY (1), number (%) of patients: 42 (41.2%)
  Pain control Week 1: PAIN CONTROLLED MOST OF EACH DAY (3), number (%) of patients: 17 (16.7%)
  Pain control Week 1: PAIN CONTROLLED SEVERAL HRS EACH DAY (2), number (%) of patients: 29 (28.4%)
  Pain control Week 1: PAIN CONTROLLED THROUGHOUT EACH DAY (4), number (%) of patients: 10 (9.8%)
  Pain control Week 2: PAIN CONTROLLED A FEW HRS/LESS EACH DAY (1), number (%) of patients: 36 (35.3%)
  Pain control Week 2: PAIN CONTROLLED MOST OF EACH DAY (3), number (%) of patients: 26 (25.5%)
  Pain control Week 2: PAIN CONTROLLED SEVERAL HRS EACH DAY (2), number (%) of patients: 26 (25.5%)
  Pain control Week 2: PAIN CONTROLLED THROUGHOUT EACH DAY (4), number (%) of patients: 10 (9.8%)
  Pain control Week 3: PAIN CONTROLLED A FEW HRS/LESS EACH DAY (1), number (%) of patients: 35 (34.3%)
  Pain control Week 3: PAIN CONTROLLED MOST OF EACH DAY (3), number (%) of patients: 27 (26.5%)
  Pain control Week 3: PAIN CONTROLLED THROUGHOUT EACH DAY (4), number (%) of patients: 8 (7.8%)
[3]; [5]
  SOWS change from baseline, MAX: 1.9
  SOWS change from baseline, MEAN(SD): 0.3 (0.47)
  SOWS change from baseline, MEDIAN: 0.2
  SOWS change from baseline, MIN: −0.7
[3]; [6]
  SOWS change from baseline, MAX: 2.4
  SOWS change from baseline, MEAN(SD): 0.3 (0.53)
  SOWS change from baseline, MEDIAN: 0.2
  SOWS change from baseline, MIN: −1.1
[3]; [7]
  SOWS change from baseline, MAX: 1.7
  SOWS change from baseline, MEAN(SD): 0.2 (0.48)
  SOWS change from baseline, MEDIAN: 0.2
  SOWS change from baseline, MIN: −1.1
[3]; [8]
  SOWS change from baseline, MAX: 2.7
  SOWS change from baseline, MEAN(SD): 0.2 (0.54)
  SOWS change from baseline, MEDIAN: 0.1
  SOWS change from baseline, MIN: −1.1
[3]; [9]
  SOWS score, MAX: 1.5
  SOWS score, MEAN(SD): 0.3 (0.36)
  SOWS score, MEDIAN: 0.2
  SOWS score, MIN: 0.0
[3]; [10]
  SOWS score, MAX: 2.5
  SOWS score, MEAN(SD): 0.5 (0.52)
  SOWS score, MEDIAN: 0.4
  SOWS score, MIN: 0.0
[3]; [11]
  SOWS score, MAX: 2.5
  SOWS score, MEAN(SD): 0.5 (0.54)
  SOWS score, MEDIAN: 0.4
  SOWS score, MIN: 0.0
[3]; [12]
  SOWS score, MAX: 2.2
  SOWS score, MEAN(SD): 0.5 (0.53)
  SOWS score, MEDIAN: 0.4
  SOWS score, MIN: 0.0
[3]; [13]
  SOWS score, MAX: 2.7
  SOWS score, MEAN(SD): 0.4 (0.54)
  SOWS score, MEDIAN: 0.3
  SOWS score, MIN: 0.0
[3]; [14]
  SOWS change from baseline, MAX: 0.2
  SOWS change from baseline, MEAN(SD): 0.0 (0.16)
  SOWS change from baseline, MEDIAN: 0.0
  SOWS change from baseline, MIN: −0.2
[3]; [15]
  SOWS change from baseline, MAX: 1.3
  SOWS change from baseline, MEAN(SD): 0.2 (0.66)
  SOWS change from baseline, MEDIAN: 0.1
  SOWS change from baseline, MIN: −0.5
[3]; [16]
  SOWS change from baseline, MAX: 1.3
  SOWS change from baseline, MEAN(SD): 0.2 (0.67)
  SOWS change from baseline, MEDIAN: 0.0
  SOWS change from baseline, MIN: −0.5
[3]; [17]
  SOWS change from baseline, MAX: 0.8
  SOWS change from baseline, MEAN(SD): 0.2 (0.41)
  SOWS change from baseline, MEDIAN: 0.1
  SOWS change from baseline, MIN: −0.1
[3]; [18]
  SOWS score, MAX: 0.7
  SOWS score, MEAN(SD): 0.3 (0.29)
  SOWS score, MEDIAN: 0.2
  SOWS score, MIN: 0.0
[3]; [19]
  SOWS score, MAX: 0.9
  SOWS score, MEAN(SD): 0.2 (0.27)
  SOWS score, MEDIAN: 0.1
  SOWS score, MIN: 0.0
[3]; [20]
  SOWS score, MAX: 1.3
  SOWS score, MEAN(SD): 0.2 (0.38)
  SOWS score, MEDIAN: 0.0
  SOWS score, MIN: 0.0
[3]; [21]
  SOWS score, MAX: 1.3
  SOWS score, MEAN(SD): 0.2 (0.39)
  SOWS score, MEDIAN: 0.0
  SOWS score, MIN: 0.0
[3]; [22]
  SOWS score, MAX: 0.8
  SOWS score, MEAN(SD): 0.1 (0.26)
  SOWS score, MEDIAN: 0.0
  SOWS score, MIN: 0.0
[3]; [23]
  SOWS change from baseline, MAXIMUM: 1.9
  SOWS change from baseline, MEAN(SD): 0.3 (0.48)
  SOWS change from baseline, MEDIAN: 0.2
  SOWS change from baseline, MINIMUM: −0.7
[3]; [24]
  SOWS change from baseline, MAXIMUM: 2.4
  SOWS change from baseline, MEAN(SD): 0.3 (0.52)
  SOWS change from baseline, MEDIAN: 0.2
  SOWS change from baseline, MINIMUM: −1.1
[3]; [25]
  SOWS change from baseline, MAXIMUM: 1.7
  SOWS change from baseline, MEAN(SD): 0.3 (0.48)
  SOWS change from baseline, MEDIAN: 0.2
  SOWS change from baseline, MINIMUM: −1.1
[3]; [26]
  SOWS change from baseline, MAXIMUM: 2.7
  SOWS change from baseline, MEAN(SD): 0.2 (0.55)
  SOWS change from baseline, MEDIAN: 0.1
  SOWS change from baseline, MINIMUM: −1.1
[3]; [27]
  SOWS score, MAXIMUM: 1.5
  SOWS score, MEAN(SD): 0.3 (0.37)
  SOWS score, MEDIAN: 0.2
  SOWS score, MINIMUM: 0.0
[3]; [28]
  SOWS score, MAXIMUM: 2.5
  SOWS score, MEAN(SD): 0.5 (0.53)
  SOWS score, MEDIAN: 0.4
  SOWS score, MINIMUM: 0.0
[3]; [29]
  SOWS score, MAXIMUM: 2.5
  SOWS score, MEAN(SD): 0.6 (0.54)
  SOWS score, MEDIAN: 0.4
  SOWS score, MINIMUM: 0.0
[3]; [30]
  SOWS score, MAXIMUM: 2.2
  SOWS score, MEAN(SD): 0.6 (0.53)
  SOWS score, MEDIAN: 0.4
  SOWS score, MINIMUM: 0.0
[3]; [31]
  SOWS score, MAXIMUM: 2.7
  SOWS score, MEAN(SD): 0.5 (0.55)
  SOWS score, MEDIAN: 0.3
  SOWS score, MINIMUM: 0.0
[3]; patients with ≧4 weeks of dosing, p<0.01
  Mean SOWS score in the first 24 hours following drug discontinuation: 2.6
